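Grown in 96-well plates, cells were treated for 48 hours with each compound at five concentrations. Insufficient inhibition: endpoint recorded as highest concentration tested. GI50 is the concentration that inhibits growth by half. TGI: total growth inhibition.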

The first assay deals with K-562 leukemia. As to the kind of experiment: NCI-60 cell line screen, 48 h.
`COc1ccc([C@H]2[C@@H](F)C(=O)N2c2cc(OC)c(OC)c(OC)c2)cc1F`: the GI50 is 0.0383 µM and the TGI was above 100 µM.

Regarding `CC(=O)[C@@]12O[C@@H]1CC1C3CCC4=CC(O)CCC4(C)C3CCC12C` (stereo partly specified), the GI50 was 55.5 µM and the TGI is above 100 µM.

For the molecule `OCC#Cc1ccccc1C#Cc1ccccc1`, the GI50 is 26 µM and the TGI is above 100 µM.

Molecule `NS(=O)(=O)c1cc(Br)c(N=Nc2ccc(O)c3ncccc23)c(Br)c1` came in with a TGI above 100 µM.

Consider `COc1cc2c3c(n(C)c(=O)c2cc1OC)-c1cc2c(cc1/C3=C\CCCN)OCO2`, for which the GI50 is 1.31 µM and the TGI came out at 12 µM.

`CC(C)C(C)/C=C\C(C)C1CCC2C3=CC=C4CC(O)CCC4(C)C3CCC21C` (stereo unspecified) showed a TGI above 100 µM.

Take `OC(c1nc2ccccc2[nH]1)C(O)C(O)C(O)c1nc2ccccc2[nH]1` (stereo unspecified): the TGI is above 100 µM.

In turn, `CCOC(=O)c1cc2nc3ccccc3c(=O)n2c2ccccc12` had a TGI above 10 µM.

Take `COc1cc2c3c(n(C)c(=O)c2cc1OC)-c1cc2c(cc1/C3=C\CCN)OCO2`: the GI50 is 0.0397 µM and the TGI was determined as 1.5 µM.

In the next assay the test system is MOLT-4 leukemia. As to the kind of experiment: NCI-60 cell line screen, 48 h.
With `CN(C(=O)c1ccc(C(F)(F)F)cc1)c1ccc(Oc2ccc3c(c2)cc(C(=O)N2CCN(Cc4ccc(OC(F)F)cc4)CC2)n3C)nc1`, the GI50 was 0.881 µM and the TGI was above 100 µM.

Turning to `Cc1cc(-c2ccc3nc(C4CCOCC4)n(CCOC(F)(F)F)c3c2)cn(C)c1=O`, the GI50 was 0.588 µM and the TGI was 17.5 µM.

As for `Nc1ncnc2c1nnn2C1OC(CO)C(O)C1O` (stereo unspecified), the TGI was 22.2 µM.

The molecule `COc1cc(C2c3cc4c(cc3OC(C)(O)C2C)OCO4)cc(OC)c1OC` (stereo unspecified) showed a TGI of 25.9 µM.

Take `C[C@@H]1CCC2[C@@H](C)[C@@H](OCC(CO[C@H]3OC4O[C@@]5(C)CC[C@H]6[C@H](C)CCC([C@H]3C)[C@@]46OO5)OC(=O)CCC(=O)O)OC3O[C@@]4(C)CC[C@@H]1[C@]32OO4` (stereo partly specified): the GI50 was 0.537 µM and the TGI is above 48.7 µM.

As to `COc1cc(OC)cc(-c2cc(=O)c3c(OC)c(OC)c(OC)c(OC)c3o2)c1`, the TGI is above 100 µM.

`COc1cc2c(c(OC)c1OC)-c1ccc(OC)c(=O)cc1C(NC(=O)c1ccc(N=[N+]=[N-])cc1)CC2` (stereo unspecified) showed a TGI of 9.82 µM.

For the molecule `COc1ccc([C@H]2[C@@H](F)C(=O)N2c2cc(OC)c(OC)c(OC)c2)cc1F`, the GI50 was 0.146 µM and the TGI came out at 93.4 µM.

For the molecule `CC(=O)[C@@]12O[C@@H]1CC1C3CCC4=CC(O)CCC4(C)C3CCC12C` (stereo partly specified), the GI50 is above 100 µM and the TGI was above 100 µM.

As for `OCC#Cc1ccccc1C#Cc1ccccc1`, the GI50 is 3.95 µM and the TGI is above 100 µM.

`NS(=O)(=O)c1cc(Br)c(N=Nc2ccc(O)c3ncccc23)c(Br)c1` came in with a TGI above 100 µM.

As to `Cc1cc(/C=C/c2ccc3cc(N(C)C)ccc3[n+]2C)c(C)n1-c1ccccc1`, the GI50 is 0.193 µM and the TGI was found to be 2.52 µM.

`COc1cc2c3c(n(C)c(=O)c2cc1OC)-c1cc2c(cc1/C3=C\CCCN)OCO2`: the GI50 was 0.325 µM and the TGI is 3.64 µM.

Regarding `CC(C)C(C)/C=C\C(C)C1CCC2C3=CC=C4CC(O)CCC4(C)C3CCC21C` (stereo unspecified), the TGI worked out at 58.3 µM.

`OC(c1nc2ccccc2[nH]1)C(O)C(O)C(O)c1nc2ccccc2[nH]1` (stereo unspecified) came in with a TGI above 100 µM.

`Cc1cc(O)c(/C=N/C(=S)NCc2ccccc2)c(=O)o1` gave a TGI above 100 µM.

Take `COc1cc2c3c(n(C)c(=O)c2cc1OC)-c1cc2c(cc1/C3=C\CCN)OCO2`: the GI50 was below 0.01 µM.

The subject of another assay is HCC-2998 colon. As to the kind of experiment: NCI-60 cell line screen, 48 h.
On to `CN(C(=O)c1ccc(C(F)(F)F)cc1)c1ccc(Oc2ccc3c(c2)cc(C(=O)N2CCN(Cc4ccc(OC(F)F)cc4)CC2)n3C)nc1`, for which the GI50 was above 100 µM and the TGI was above 100 µM.

The molecule `Nc1ncnc2c1nnn2C1OC(CO)C(O)C1O` (stereo unspecified) gave a TGI of 5.32 µM.

In the case of `COc1cc(C2c3cc4c(cc3OC(C)(O)C2C)OCO4)cc(OC)c1OC` (stereo unspecified), the TGI was above 100 µM.

Molecule `COc1cc(OC)cc(-c2cc(=O)c3c(OC)c(OC)c(OC)c(OC)c3o2)c1` gave a TGI above 100 µM.

Molecule `COc1cc2c(c(OC)c1OC)-c1ccc(OC)c(=O)cc1C(NC(=O)c1ccc(N=[N+]=[N-])cc1)CC2` (stereo unspecified) had a TGI of 0.0513 µM.

Consider `COc1ccc([C@H]2[C@@H](F)C(=O)N2c2cc(OC)c(OC)c(OC)c2)cc1F`, for which the GI50 is 0.406 µM and the TGI was above 100 µM.

On to `O=C(/C=C/c1ccncc1)c1cc(Cl)ccc1O`, for which the GI50 was 13.5 µM and the TGI amounted to 28.4 µM.

In the case of `Cc1cc(/C=C/c2ccc3cc(N(C)C)ccc3[n+]2C)c(C)n1-c1ccccc1`, the GI50 was 0.203 µM and the TGI amounted to 2.64 µM.

As for `COc1cc2c3c(n(C)c(=O)c2cc1OC)-c1cc2c(cc1/C3=C\CCCN)OCO2`, the GI50 is 10.4 µM and the TGI was determined as 32.3 µM.

As for `CCOC(=O)c1cc2nc3ccccc3c(=O)n2c2ccccc12`, the TGI was above 10 µM.

Consider `Cc1cc(O)c(/C=N/C(=S)NCc2ccccc2)c(=O)o1`, for which the TGI was above 100 µM.

A further assay has as its system SK-OV-3 ovarian. As to the kind of experiment: NCI-60 cell line screen, 48 h.
Take `CN(C(=O)c1ccc(C(F)(F)F)cc1)c1ccc(Oc2ccc3c(c2)cc(C(=O)N2CCN(Cc4ccc(OC(F)F)cc4)CC2)n3C)nc1`: the GI50 is above 100 µM and the TGI is above 100 µM.

Turning to `Cc1cc(-c2ccc3nc(C4CCOCC4)n(CCOC(F)(F)F)c3c2)cn(C)c1=O`, the TGI came out at 1.25 µM.

For the molecule `Nc1ncnc2c1nnn2C1OC(CO)C(O)C1O` (stereo unspecified), the TGI stood at 1.95 µM.

Regarding `C[C@@H]1CCC2[C@@H](C)[C@@H](OCC(CO[C@H]3OC4O[C@@]5(C)CC[C@H]6[C@H](C)CCC([C@H]3C)[C@@]46OO5)OC(=O)CCC(=O)O)OC3O[C@@]4(C)CC[C@@H]1[C@]32OO4` (stereo partly specified), the GI50 was 27.2 µM and the TGI is above 100 µM.

For `COc1cc(OC)cc(-c2cc(=O)c3c(OC)c(OC)c(OC)c(OC)c3o2)c1`, the TGI is 54.2 µM.

As to `COc1ccc([C@H]2[C@@H](F)C(=O)N2c2cc(OC)c(OC)c(OC)c2)cc1F`, the GI50 is 3.45 µM and the TGI was above 100 µM.

Turning to `OCC#Cc1ccccc1C#Cc1ccccc1`, the GI50 is 16.6 µM and the TGI stood at 33.9 µM.

The values above are taken from PubChem BioAssay (NCI).
